Publication PMC12812009, “Optimization of 4‐Amino‐2‐Pyridone Inhibitors of Proprotein Convertase Subtilisin/Kexin Type 9: Integrating Structure–Activity and Structure–Metabolism Relationships” (Chemmedchem, 2025)
Like-named read-outs stand apart in the source and are kept apart here.

Tests used:
secreted PCSK9 = assay: PCSK9 secretion in culture medium, ELISA on HepG2 supernatants; type: cell-based, human
Procedure: Next, the levels of secreted PCSK9 were quantified by ELISA assay (Figure 5) only on supernatants collected from cells treated with noncytotoxic concentrations of each compound, as reported in Table 1. Simvastatin (Simva) at 20 and 40 μM and berberine (BBR) at 10 μM were included as controls. As described in the literature, simvastatin induces PCSK9 expression as a compensatory mechanism in response to its cholesterol‐lowering effects, being a pharmacological competitor for HMG‐CoA reductase, the rate‐limiting enzyme of the cholesterol biosynthetic pathway.^[ [29] ^] In contrast, BBR, a natural compound, reduces the expression of PCSK9 levels through transcriptional inhibition, thus increasing the LDLR availability on plasma membrane.^[ [30] ^] As additional and distinct mechanism to the latter, BBR is also able to stabilize the transcript of LDLR, thus increasing its half‐life.^[ [31] ^] As expected, cells stimulated with simvastatin released more PCSK9 into the culture medium compared to unstimulated cells, with a statistically significant concentration‐dependent effect (+73% at 20 μM, p < 0.01; +200% at 40 μM, p < 0.0001), while BBR at 10 μM decreased PCSK9 levels in the medium more than 50% (p < 0.0001 vs. basal) (Figure 5).^[ [32] ^] The amount of PCSK9 secreted into the culture media was measured with an appropriate ELISA kit (R&D System, DY3888 and DY008B2) on the supernatants collected during the MTT assay. Every experimental condition was run in duplicate and the average PCSK9 secretion and standard deviation was calculated. A 4PL regression analysis was used to interpolate unknowns with the standard curve using GraphPad Prism v10.2, according to manufacturers’ instructions. The data were normalized onto the corresponding cell viability, and IC50 was then calculated using GraphPad Prism v10.2.

[1] = In vitro metabolic stability with mouse liver microsomes; type: in vitro ADME; conditions: for metabolic stability, percentage of intact compound recovered relative to control: MLM 1 mg/ml + NADPH-generating system, 10 µM, HPLC; for metabolic stability, percentage of intact compound recovered relative to control / metabolic stability (in words): 60 min; for metabolic stability (in words): MLM + NADPH-generating system
Procedure: All newly synthesized LSF derivatives of 5c were biologically evaluated to determine whether the introduced modifications influenced both metabolic stability and anti‐PCSK9 activity. Microsomal stability assays were conducted to assess the impact of LSF modifications on improving the stability of 5c. In these assays, LSF derivatives were incubated with mouse liver microsomes (MLM) and an NADPH‐generating system for 60 min, followed by HPLC analysis. Control samples included compounds and liver microsomes without the NADPH system, allowing for the assessment of nonspecific binding to microsomes. […] Acylated derivatives 12, 13, and 14 achieved stability levels exceeding 95%, as did the bicyclic derivative 7, which exemplifies a dual‐site functionalization.
MLM (pooled male) were obtained from Xenotech, LLC (Cambridge, Kansas City, USA). Glucose‐6‐phosphate (G6P), oxidized nicotinamide‐adenine‐dinucleotide phosphate (NADP^+), magnesium chloride (MgCl2), and glucose‐6‐phosphate‐dehydrogenase (G6PDH) were supplied by Sigma‐Aldrich (Milan, Italy). Metabolic stability assays were modified from Ferlenghi et al.^[ [33] ^] Briefly, samples were prepared in 100 mM phosphate buffered saline (PBS), pH 7.4, containing 1 mg ml^–1 MLM and a NADPH‐generating system (5 mM MgCl2, 10 mM glucose‐6‐phosphate, 2 mM NADP^+, 1.5 U ml^–1 of glucose‐6‐phosphate dehydrogenase). After incubation (37 °C, 5 min stirring), compounds stock solutions in DMSO were added to a final concentration of 10 µM. The final DMSO percentage in samples was kept at 0.5%. After 60 min, single aliquots of reaction mixture were withdrawn, added of two volumes of acetonitrile, centrifuged (10,000 g, 10 min) and the supernatant was analyzed by HPLC. The unspecific binding to MLM was evaluated by means of control samples in which the compounds were incubated in the absence of a NADPH generating system. The apparatus used for HPLC analysis was a Shimadzu instrument, with a reverse‐phase Nova‐Pak column (Waters) (C18 4 μm 3.9 × 150 mm, Waters). The mobile phase, pumped at a flow rate of 1.2 ml min^–1, consisted of water and acetonitrile in either a 50:50 (v/v) ratio (compounds 5c, 6a, 6b, 6c, 7, 8, 12, 13, 14, 17b) or a 40:60 (v/v) ratio (compounds 11 and 15) or a 30:70 (v/v) ratio (for compounds 17a, 18a, 18b). For compounds 9 and 10, a phosphate buffer (5.98 g L^–1 Na2HPO4, 0.19 g L^–1 KH2PO4, adjusted to pH 7.4 with 85% H3PO4 and supplemented with 1.4 mL L^–1 triethylamine; final pH: 8) and acetonitrile (50:50, v/v) were pumped at a flow rate of 2 mL min^–1. In all cases, column temperature was 35 °C, injection volume was 50 µl, and absorbance was monitored at 254 nm. Serial dilutions for the calibration curves were prepared in the interval 0.5–20 µM in either PBS:CH3CN or H2O:CH3CN mixture (50:50, v/v) for compounds 5c, 6a, 6b, 8, 9, 10, 11, 12, 13, 14, 15, 17a, 17b, 18a, 18b, and in acetonitrile for compounds 6c and 7.

[2] = MTT cell viability assay in HepG2 cell cultures; type: cell-based, human; conditions: human, HepG2 cells, MTT
Procedure: (§1) The approach we set‐up to test the new PCSK9i was based on functional assay, which evaluated at the same time compounds cytotoxicity, and their effect on the secreted PCSK9 on the same cell line. First, cell viability was evaluated in HepG2 cell cultures using the MTT assay (CC50 values are reported in Table 1 and Figure 5 ) after 24 h of incubation in starving conditions (0.4% fetal bovine serum (FBS)). The low FBS concentration, and thus low extracellular lipoproteins, stimulates the sterol responsive element binding protein (SREBP) pathway, inducing the expression of LDLR, PCSK9, HMG‐CoA reductase,^[ [28] ^] thus increasing the uptake of exogenous cholesterol and enhancing the synthesis of endogenous cholesterol. This first step allowed us to calculate the CC50 and identify the noncytotoxic concentrations (viability higher than 90%; Table 1), then tested for PCSK9 inhibitory activity.
(§2) Cell viability was assessed using the MTT assay. Cells were seeded in 96‐well plates (2.5 × 10^4 cells/well) in MEM supplemented with 10% v/v FBS and incubated for 24 h. The cells were then treated with the synthesized compounds dissolved in DMSO at increasing concentrations (from 0.5 to 50 µM) in MEM supplemented with 0.4% v/v FBS for 24 h. Simvastatin [20 and 40 µM] and BBR [10 µM] (both from Merck, St. Louis, Missouri, USA) were used as internal controls as PCSK9 inducer and inhibitor, respectively.^[ [21] ^, [34] ^, [35] ^] The cells were then incubated for 2 h with a solution of MTT [1 mg mL^–1] in MEM supplemented with 0.4% v/v FBS, away from light sources. The supernatant was then collected and 200 µL of DMSO was added to each well to solubilize the newly formed formazan. Finally, an aliquot of 100 µL was taken to measure the absorbance at a wavelength of 570 nm using an absorbance microplate reader (Spark Tecan, Switzerland). Every experimental condition was run in duplicate and the average cell viability and standard deviation was calculated. Cell viability was expressed as the percentage of treated cells compared to untreated (basal) cells. CC50 values for each compound were calculated by interpolating the percentage of cell viability through nonlinear regression analysis of the log (inhibition) versus response using GraphPad Prism software version 8.0 (GraphPad Software Inc., La Jolla, CA).

HepG2 cell cultures = assay: MTT cell viability assay in HepG2 cell cultures; type: cell-based, human; conditions: 0.5-50.0 μM, HepG2, MTT, 24 h
Procedure: as §1, §2

[3] = Homo sapiens, HepG2, 24 h, read-out: secreted PCSK9 change vs. basal
[4] = Homo sapiens, HepG2, 24 h, ELISA on supernatants, normalized to viability, Figures 5 and 8 and text, read-out: IC50 (anti-PCSK9 activity, PCSK9 secretion)
[5] = printed in Figures 5 and 8, HepG2, 24 h, read-out: CC50
[6] = 24 h incubation, HepG2, 0.4% FBS, 0.5-50.0 μM, read-out: CC50 (CI 95%)
[7] = Homo sapiens, HepG2, Table S2, ELISA, non-cytotoxic concentrations, read-out: IC50 ± SD on PCSK9 secreted by HepG2

Row | metabolic stability, percentage of intact compound recovered relative to control [1] | SMILES | inhibition at 50 µM (secreted PCSK9; [3]) [%] | IC50 (secreted PCSK9; [4]) [µM] | CC50 at 24 h [2, 5] [µM] | cytotoxicity (in words) (HepG2 cell cultures) | metabolic stability (in words) [1] | inhibition at 0.5 µM (secreted PCSK9; [3]) [%] | CC50 at 24 h [2, 6] [µM] | IC50 (secreted PCSK9; [7]) [µM] | other results
1 | exceeding 95% | Cc1cc(OCc2ccc(C(F)(F)F)cc2)c(Cc2ccc(C(F)(F)F)cc2)c(=O)n1Cc1ccc(C(F)(F)F)cc1 [Compound 18a, 6‐Methyl‐1,3‐Bis(4‐(Trifluoromethyl)Benzyl)‐4‐((4‐(Trifluoromethyl)Benzyl)Oxy)pyridin‐2(1H)‐One] | 80 | 2.1 | > 50 | nontoxic at all the concentrations tested |  |  |  |  | metabolic stability/PCSK9 IC50 ratio (in words) ([1]; with respect to 5c): higher metabolic stability/PCSK9 IC50 ratio
2 |  | Cc1cc(OCc2cccc(F)c2)c(Cc2cccc(F)c2)c(=O)n1Cc1ccc(Cl)cc1 [Compound 18b, 1‐(4‐Chlorobenzyl)‐3‐(3‐Fluorobenzyl)‐4‐((3‐Fluorobenzyl)Oxy)‐6‐Methylpyridin‐2(1H)‐One] | 81 | 3.3 | > 50 | nontoxic at all the concentrations tested | did not show any improvement in metabolic stability compared to 5c |  |  |  | 
3 | exceeding 95% | Cc1cc(N(Cc2ccc(C(F)(F)F)cc2)C(=O)c2ccccc2)cc(=O)n1Cc1ccc(C(F)(F)F)cc1 [Compound 13, N‐(6‐Methyl‐2‐Oxo‐1‐(4‐(Trifluoromethyl)Benzyl)‐1,2‐Dihydropyridin‐4‐yl)‐N‐(4‐(Trifluoromethyl)Benzyl)Benzamide] |  |  | > 50 |  |  | 17 |  |  | inhibition at 5 µM (secreted PCSK9; Homo sapiens, 5 μM, HepG2, 24 h, read-out: secreted PCSK9 change vs. basal): 51%
4 |  | Cc1cc(NCc2ccc(C(F)(F)F)cc2)c(I)c(=O)n1Cc1ccc(C(F)(F)F)cc1 [Compound 6c, 3‐Iodo‐6‐Methyl‐1‐(4‐(Trifluoromethyl)Benzyl)‐4‐((4‐(Trifluoromethyl)Benzyl)Amino)pyridin‐2(1H)‐One] |  |  |  |  | did not improve compared to the parent compound 5c | 20 | 46.9 |  | 
5 |  | Cc1cc2c(c(=O)n1Cc1ccc(C(F)(F)F)cc1)CCC(=O)N2Cc1ccc(C(F)(F)F)cc1 [Compound 11, 7‐Methyl‐1,6‐Bis(4‐(Trifluoromethyl)Benzyl)‐4,6‐Dihydro‐1,6‐Naphthyridine‐2,5(1H,3H)‐Dione] |  |  |  |  | modest yet notable improvement in stability |  | 28 | 10.2 ± 2.81 | effect on PCSK9 secretion (in words) (secreted PCSK9; HepG2, 24 h, non-cytotoxic concentrations): moderate but significant inhibition of PCSK9 secretion
6 |  | CO/C(=N\c1cc(C)n(Cc2ccc(C(F)(F)F)cc2)c(=O)c1)c1ccc(C(F)(F)F)cc1 [Compound 8, Methyl (Z)‐N‐(6‐Methyl‐2‐Oxo‐1‐(4‐(Trifluoromethyl)Benzyl)‐1,2‐Dihydropyridin‐4‐yl)‐4‐(Trifluoromethyl)Benzimidate] |  |  | 43.1 |  | entirely metabolized |  | 30.2 | 7.2 ± 0.51 | decrease of secreted PCSK9 vs. basal (secreted PCSK9; 10 μM, HepG2, 24 h, given as decrease): 50%
